Measured values taken from article PMC10511816 (The Journal of Biological Chemistry, 2023).
Values joined by “and” are separate entries in the source; they are usually repeats but may differ in a detail not shown here. Equal values may be shown once.

How the values were obtained:
[1] = test system: mouse model of hyperuricemia; assay: mouse model of hyperuricemia (potassium oxonate), plasma purines by HPLC; type: in vivo; details: for plasma hypoxanthine levels vs control / plasma xanthine levels vs control: 1 h
Description: To compare the inhibitory effect of allopurinol and oxypurinol on uric acid production, mice were treated with oxonate to inhibit uricase and induce hyperuricemia.
Figure 2 Comparison of the effects of allopurinol and oxypurinol in a model of hyperuricemia. […] Statistical analysis was performed using one-way ANOVA and Turkey’s multiple comparison test. ∗p < 0.05, ∗∗p < 0.01, ∗∗∗∗p < 0.0001.
Six-week-old specific-pathogen free-grade male Institute of Cancer Research mice were purchased from Japan SLC. All animal experiments were performed according to the protocol approved by the Animal Care and Ethics Committee of Tokyo University of Pharmacy and Life Sciences (Permit No. P21-80). Mice were housed under conditions of 22 to 24 °C, 40 to 60% humidity, and a 12-h light/12-h dark cycle. Food and water were administered ad libitum.
Oxypurinol or allopurinol was suspended in 0.5% carboxymethyl cellulose and administered intraperitoneally at 3 mg/kg or 10 mg/kg (n = 11). The control group received 0.5% carboxymethyl cellulose (n = 5). Immediately after intraperitoneal administration, potassium oxonate was injected subcutaneously at 300 mg/kg. One hour after administration, mice were sacrificed by cervical dislocation, and blood was collected with heparin. […] Statistical analysis was performed using GraphPad Prism 9 software (www.graphpad.com).
Purine concentrations were measured using a Shimadzu HPLC system consisting of the CBM-20A controller, LC-20AD pump, SIL-20AC autosampler (set at 4 °C), CTO-20A column oven (set at 40 °C), and SPD-M20A diode array detector. Peak analysis was performed using LC solution software. A SUPELCOSIL LC-18-T column (25 cm × 4.6 mm id 5 μm particle size) was used with the SUPELCOSIL LC-18-T Supelguard guard column separation of purines, using a flow rate was 0.8 ml/min and 10 or 20 μl samples. The mobile phase used was A: 0.1 M KPB and 4 mM tetrabutylammonium hydrogen sulfate (pH 5.5), B: 70% buffer A and 30% methanol (v/v). Gradient conditions were 0 min (0% B), 2 min (0% B), 4 min (30% B), 12 min (60% B), 15 min (100% B), 19 min (100% B), 20 min (0% B), and 30 min (0% B). Detection wavelengths were 254 nm, 268 nm, and 295 nm. The data were analyzed using LabSolutions Ver. 5.97 SP1. All purines were identified by retention time and quantified using an external standard.

[2] = target: T1, XO type enzyme (Bos taurus, UniProt P80457); assay: half-life of the Ered•oxypurinol complex (activity recovery); type: biochemical, bovine
T1 construct: Bovine milk was obtained from the animal farm of the Nippon Veterinary and Life Science University; from tissue; host or cells: bovine milk
Description: We next examined the half-life of the Ered•oxypurinol complex under more physiological conditions.
The main figure plots activity (%) against time.
Uric acid production was measured at 295 nm with UV-1800 Spectrophotometer at 25 °C. The activity recovery was followed overtime until the activity to flavin ratio reached approximately 200, indicating full reactivation.

[3] = test system: XOR; details: pH 8.5 and 25 °C; cited from earlier work
[4] = test system: xanthine oxidase; parameters: method as in Graham et al. 64; details: ref Graham et al. 64; cited from earlier work
[5] = target: T2, XO (Bos taurus, UniProt P80457); assay: initial-velocity steady-state kinetics of XO, O2 as electron acceptor; type: biochemical, bovine; parameters: Bovine milk was obtained from the animal farm of the Nippon Veterinary and Life Science University; from tissue; host or cells: bovine milk
Description: (§1) Bovine milk was obtained from the animal farm of the Nippon Veterinary and Life Science University. […] The dehydrogenase form of the enzyme (XDH) was obtained by reacting XO immediately upon purification with 5 mM DTT at pH 8.5, 25 °C for 1 h. XO and XDH assays were carried out at 25 °C under aerobic conditions. […] A total of 500 μM β-NAD^+ was added to the same reaction solution for XDH activity. Physiological conditions such as pH 7.4 (0.1 M potassium phosphate buffer (KPB), 0.2 mM EDTA) and the addition of 50 μM β-NADH were also used. The activity was measured by following 295 nm and 340 nm on a UV-1800 or UV1900i spectrophotometer. […] In addition, the enzyme reaction solution was quenched with perchloric acid and neutralized with K2CO3, with products analyzed using HPLC as described below. Spectrophotometric data were analyzed using UV-Probe software Ver. 2.70 or LabSolutions UV-Vis Ver. […] Kinetic parameters were determined from nonlinear curve fits of raw data using GraphPad Prism 9 software.
(§2) A295 indicates the concentration of uric acid yielded by XOR. […] A295 indicates the concentration of uric acid yielded by XOR. Figure S2. The XOR inhibition mode of oxypurinol.A–G, Lineweaver-Burk plots were generated to visualize data and estimated the inhibition patterns. Data are representative of least two independent experiments. […] Figure S3. […] B, mode of inhibition of oxypurinol on the inosine degradation reaction of PNP. […] 0, 250, 375, 500, 750 and 1000 μM of oxypurinol were used. […] The rate of NAD^+ conversion to NADH was measured at A340 nm.

[6] = target: T3, XDH (Bos taurus, UniProt P80457); assay: initial-velocity steady-state kinetics of XDH, NAD+ as electron acceptor; type: biochemical, bovine; parameters: Bovine milk was obtained from the animal farm of the Nippon Veterinary and Life Science University; from tissue; host or cells: bovine milk; details: for Types of inhibition / Ki: XDH; for Types of inhibition: NAD+
Description: as §1, §2

[7] = target: T3, XDH; details: 2 μM hypoxanthine, 500 μM β-NAD+, 6 nM XDH, pH 8.5, 25 °C
Description: The rate of NAD^+ conversion to NADH was measured at A340 nm.
as §1

[8] = target: T2, XO; details: 3 μM allopurinol, 2 μM xanthine, 2.56 nM XO, pH 7.4, 37 °C
[9] = test system: hypoxanthine-guanine phosphoribosyltransferase (HGPRT); details: cited from earlier work
[10] = target: XOR; details: read-out: Ki for the xanthine to uric acid reaction; steady-state kinetic analysis; cited from earlier work
[11] = 3 mg/kg intraperitoneal, 1 h after administration, oxonate-treated mice
[12] = one hour after 3 mg/kg allopurinol intraperitoneal
[13] = as substrate of XDH, electron acceptor NAD+, 340 nm, mean ± S.E.

T3 sequence (P80457 whole entry): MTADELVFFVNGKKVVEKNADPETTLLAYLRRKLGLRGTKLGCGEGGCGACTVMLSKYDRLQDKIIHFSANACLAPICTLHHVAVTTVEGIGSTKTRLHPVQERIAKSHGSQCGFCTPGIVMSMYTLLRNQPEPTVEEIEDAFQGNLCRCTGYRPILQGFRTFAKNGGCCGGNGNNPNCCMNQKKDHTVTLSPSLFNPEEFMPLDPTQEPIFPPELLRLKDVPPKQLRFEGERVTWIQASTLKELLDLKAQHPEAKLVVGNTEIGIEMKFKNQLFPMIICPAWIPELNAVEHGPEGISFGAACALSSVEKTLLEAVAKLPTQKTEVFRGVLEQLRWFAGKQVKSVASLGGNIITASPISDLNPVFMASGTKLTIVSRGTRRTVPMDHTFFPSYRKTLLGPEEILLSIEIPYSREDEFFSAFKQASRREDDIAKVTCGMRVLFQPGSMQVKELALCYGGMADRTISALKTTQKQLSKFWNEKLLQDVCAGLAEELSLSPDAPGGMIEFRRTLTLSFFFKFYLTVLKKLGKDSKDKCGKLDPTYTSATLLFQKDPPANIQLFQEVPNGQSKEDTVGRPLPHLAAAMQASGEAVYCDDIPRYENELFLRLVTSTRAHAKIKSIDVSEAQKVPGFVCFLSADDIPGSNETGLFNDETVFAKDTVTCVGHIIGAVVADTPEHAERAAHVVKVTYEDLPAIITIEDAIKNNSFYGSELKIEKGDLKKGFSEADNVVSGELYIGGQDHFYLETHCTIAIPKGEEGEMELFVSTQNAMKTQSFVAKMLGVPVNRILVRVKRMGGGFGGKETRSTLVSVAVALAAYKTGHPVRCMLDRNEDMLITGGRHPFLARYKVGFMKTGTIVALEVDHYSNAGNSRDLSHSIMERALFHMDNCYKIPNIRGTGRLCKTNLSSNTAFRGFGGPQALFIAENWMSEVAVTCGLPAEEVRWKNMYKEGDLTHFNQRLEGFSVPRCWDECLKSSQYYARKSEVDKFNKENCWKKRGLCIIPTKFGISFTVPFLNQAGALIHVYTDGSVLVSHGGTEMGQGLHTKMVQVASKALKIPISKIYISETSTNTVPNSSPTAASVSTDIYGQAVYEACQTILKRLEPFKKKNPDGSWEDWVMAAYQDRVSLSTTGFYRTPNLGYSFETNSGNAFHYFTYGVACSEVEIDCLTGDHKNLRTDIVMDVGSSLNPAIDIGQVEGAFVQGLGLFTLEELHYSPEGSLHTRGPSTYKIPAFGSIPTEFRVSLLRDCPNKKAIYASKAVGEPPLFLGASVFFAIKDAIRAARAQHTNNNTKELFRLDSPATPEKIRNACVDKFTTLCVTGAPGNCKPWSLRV
T2 sequence (P80457 whole entry): as above
T1 sequence (P80457 whole entry): as above

For `O=c1[nH]c(=O)c2c[nH]nc2[nH]1` [Oxypurinol], the “plasma hypoxanthine levels vs control” value ([1]; 3 mg/kg intraperitoneal) was “neither hypoxanthine nor xanthine concentrations were significantly different from the control group”, the “plasma xanthine levels vs control” value ([1]; 3 mg/kg intraperitoneal) was “neither hypoxanthine nor xanthine concentrations were significantly different from the control group” and the “plasma uric acid levels compared to the control group” value [1, 11] was “did not significantly reduce plasma uric acid levels”. The “plasma hypoxanthine levels vs control” value ([1]; 10 mg/kg intraperitoneal) was “neither hypoxanthine nor xanthine concentrations were significantly different from the control group”, the “plasma xanthine levels vs control” value ([1]; 10 mg/kg intraperitoneal) was “neither hypoxanthine nor xanthine concentrations were significantly different from the control group” and the “plasma uric acid levels” value ([1]; 10 mg/kg intraperitoneal, 1 h after administration, oxonate-treated mice) was “reduce plasma uric acid to that seen with 3 mg/kg allopurinol”. For the same compound, the “half-life of the Ered•oxypurinol complex” value ([2]; pH 7.4, 25 °C) was 9.2 h and 9.198 h, the “half-life of the Ered•oxypurinol complex” value ([2]; pH 7.4, 37 °C) was 1.17 h and 1.22 h and the “half-life of the Ered•oxypurinol complex” value ([2]; pH 8.5, 37 °C) was 1.17 h and 1.18 h. For the same compound, the “half-life for reoxidation / dissociation of the Ered•oxypurinol complex” value [3] was 5 h, the “oxypurinol concentration at which xanthine oxidase is maximally inhibited” value [4] was 33.75 µM and the Ki [5] was 6.35 ± 0.96 µM. For the same compound, the Types of inhibition ([5]; XO, substrate xanthine, O2, 295 nm) was “Competitive”, the “Ki for oxypurinol relative to Ki for allopurinol” value ([5]; both XO and XDH, allopurinol Ki ref 19) was “about 10 fold” and the Types of inhibition ([6]; substrate hypoxanthine, 340 nm) was “Competitive”. The Ki ([6]; substrate hypoxanthine, electron acceptor NAD+, 340 nm, mean ± S.E.) was 3.15 ± 0.22 µM, the Types of inhibition ([6]; substrate xanthine, 295 nm) was “Competitive” and the Ki ([6]; substrate xanthine, electron acceptor NAD+, 295 nm, mean ± S.E.) was 4.6 ± 0.87 µM.

For `Oc1ncnc2[nH]ncc12` [Allopurinol], the “plasma hypoxanthine levels vs control” value ([1]; 3 mg/kg intraperitoneal) was “significantly increased plasma hypoxanthine levels”, the “plasma xanthine levels vs control” value ([1]; 3 mg/kg intraperitoneal) was “xanthine levels were largely unaffected” and the “plasma uric acid levels compared to the control group” value [1, 11] was “significantly decreased plasma uric acid levels”. For the same compound, the allopurinol in plasma [1, 12] was “little allopurinol was detected in the plasma”, the oxypurinol in plasma [1, 12] was “a small amount of oxypurinol was also observed” and the “concentration above which NADH formation is immediately inhibited” value [7] was “Above 5 μM”. For the same compound, the “immediate accumulation of oxypurinol” value [8] was 0.5 µM, the “time at which xanthine was completely converted to uric acid” value [8] was 300 min and the “time for which uric acid production was stopped” value [8] was “up to 60 min”. For the same compound, the “substrate or inhibitor of HGPRT” value [9] was “is a substrate”, the Ki [10] was 0.1 µM and the Km [6, 13] was 4.23 ± 0.52 µM. It also gave a kcat [6, 13] of 1.83 ± 0.92 s⁻¹.
